Source: patent US20070254903A1, “Novel Spiroindoline or Spiroisoquinoline Compounds, Methods of Use and Compositions Thereof” (ARENA PHARMACEUTICALS, INC., priority 2003, published 2007)

Assays:
[1] = system: isolated adult rat hearts; test: Ischemia-Reperfusion Assay 1 (Langendorff apparatus); settings: 10 μM; 30 min ischemia, 30 min reperfusion; compared to vehicle; FIG. 2
Description: Male Sprague-Dawley rats (300-350 g body weight) were anesthetized with pentobarbital sodium (50 mg/kg IP) then heparin (400 IU IP) was administered 10 minutes prior to surgery. The chest wall was opened and the heart was rapidly excised and immediately placed into ice-cold Krebs-Henseleit (KH) buffer (118 mM NaCl, 4.7 mM KCl, 1.2 mM MgSO4, 1.2 mM KH2PO4, 1.5 mM CaCl2, 25 mM NaHCO3, 11 mM glucose, 1 mM pyruvate, and 0.005 mM EDTA) to produce cardiac arrest. The aorta was then cannulated and the heart retrogradely perfused with KH buffer maintained at 37° C. in a reservoir bubbled with 95% O2/5% CO2 (pH7.4) on the Langendorff apparatus at a constant pressure of 80 mmHg. Myocardial temperature was maintained at 37° C. by partially submerging the heart into a water-jacketed chamber filled with KH buffer. A water filled latex balloon attached to a metal cannula and inserted into the left ventricle via the mitral valve and connected to a pressure transducer (Powerlab, ADInstruments, Inc) was used for measurement of left ventricular pressure. The balloon was initially inflated to an end-diastolic pressure of 10 mmHg. […] The difference between peak-systolic and end diastolic pressures, or left ventricular developed pressure (LVDP) was calculated as an index of contractile function and measured just prior to ischemia and at the end of reperfusion. […]

[2] = system: isolated adult rat hearts; test: Ischemia-Reperfusion Assay 2 (Langendorff apparatus)
Description: Male Sprague-Dawley rats (300-350 g body weight) were anesthetized with Inactin (100 mg/kg IP) 20 minutes prior to surgery. The chest wall was opened and the heart was rapidly excised and immediately placed into ice-cold Krebs-Henseleit (KH) buffer (118 mM NaCl, 4.7 mM KCl, 1.2 mM MgSO4, 1.2 mM KH2PO4, 1.5 mM CaCl2, 25 mM NaHCO3, 11 mM glucose […], and 0.005 mM EDTA) to produce cardiac arrest. The aorta was then cannulated and the heart retrogradely perfused with KH buffer maintained at 37° C. in a reservoir bubbled with 95% O2/5% CO2 (pH7.4) on the Langendorff apparatus at a constant pressure of 70 mmHg. Myocardial temperature was maintained at 37° C. by partially submerging the heart into a water-jacketed chamber filled with KH buffer. A water filled latex balloon attached to a metal cannula and inserted into the left ventricle via the mitral valve and connected to a pressure transducer (Powerlab, ADInstruments, Inc) was used for measurement of left ventricular pressure. The balloon was initially inflated to an end-diastolic pressure of 10 mmHg. After allowing 20 minutes for equilibration, rat hearts were subjected to 10 minutes of KH buffer containing drug or vehicle followed by 30 minutes of ischemia followed by 30 minutes of reperfusion. The difference between peak-systolic and end diastolic pressures, or left ventricular developed pressure (LVDP) was calculated as an index of contractile function and measured just prior to ischemia and at 10, 20 and 30 minutes of reperfusion. Percent recovery of LV function [(LVDP post reperfusion/LVDP pre-ischemia)[…]] was averaged across 5 vehicle and 4 drug treated hearts and one-way anova with Newman-Keuls Multiple Comparison Test was used to determine statistical significance.
Epicardial electrogram recordings were also taken from the isolated rat hearts used in FIGS. 3 and 4. Briefly, silver wire electrodes were placed on the right atrium and the apex of the left ventricle, allowing an epicardial electrogram to be recorded. […]

rats = test: Measurement of blood pressure in rats (telemetry); format: in vivo, rat; settings: conscious rats, IP injection, about 120 minutes after injection; FIG. 6
Description: Cardiac parameters were measured by small transmitting devices, (Data Sciences PhysioTel Telemetry devices), implanted in rats. The implanted transmitting devices were used to measure blood pressure in freely moving conscious animals. There are no external connections or tethering devices that can inhibit animal movement and induce unnecessary stress, which can affect the outcome of a study.
This procedure was performed under modified aseptic conditions. Rats were anesthetized with Isoflurane gas that ranged in concentration from 1.5-2.0%. A cardiac telemetry device was implanted into the peritoneal cavity with a pressure sensing catheter situated no more than 2 cm inside the descending aorta. This was accomplished as follows: The rat was shaved and the incision site was prepared with an iodine solution. The rat was then placed on a heating pad to maintain a constant body temp of 38±0.5° C., and covered with a sterile drape. A 6 cm midline abdominal incision was made to provide access to the implantation area. […] The rats were monitored for 7 days to ensure proper recovery.
On the test day, injections with either vehicle or with test compound were administered via IP injection in volumes of ˜250 μl. Animals were monitored with a resolution of approximately one measurement/min for 60 minutes before injection of vehicle or compound and for about 120 minutes after injection.

C=CCN1CCC2(CC1)CN(C(=O)c1cccc(F)c1F)c1ccc(F)cc12 [Compound 75, 1′-(allyl)-1,2-dihydro-5-fluoro-1-(2,3-difluoro-benzoyl)-spiro[3H-indole-3,4′-piperidine]]
percent recovery of left ventricle function [1]: significant increase in percent recovery of left ventricle function
left ventricle function after reperfusion ([2]; 30 μM, 30 min ischemia, 30 min reperfusion, compared to vehicle, FIG. 3): significant increase in left ventricle function after reperfusion
end diastolic pressure (EDP), ischemic contracture ([2]; 30 μM, compared to vehicle, FIG. 4): significant decrease in end diastolic pressure
early reperfusion arrhythmias (hearts positive) ([2]; epicardial electrogram, first 5 minutes of reperfusion, FIG. 5): none of the four hearts
blood pressure change (rats): did not result in a significant change in blood pressure
